Strand notation (5' to 3'): a small letter for the sugar, then the base; units joined by * are phosphorothioate-linked, units joined directly phosphodiester-linked; [ ] holds rarer units or linkages, { } end groups; capitals alone tell only the bases. e = 2'-O-(2-methoxyethyl) (MOE); [5mC] = 5-methylcytosine; d = 2'-deoxy (DNA)

One series concerns human LIM domain kinase 1 mRNA. As to the kind of experiment: Antisense inhibition of human LIM domain kinase 1 mRNA levels, quantitative real-time PCR, A549 cells (screen). The class given is cell-based. Conditions: quantitative real-time PCR, averages from two experiments, screening concentration not given (50 nM to 300 nM used herein). How it is done:
When cells reached 70% confluency, they were treated with oligonucleotide. […] Cells were harvested 16-24 hours after oligonucleotide treatment.
Vacuum was applied for 1 minute.
PCR reagents were obtained from Invitrogen Corporation, (Carlsbad, Calif.).
Total RNA is quantified using RiboGreenTM RNA quantification reagent from Molecular Probes.
Probes and primers to human LIM domain kinase 1 were designed to hybridize to a human LIM domain kinase 1 sequence, using published sequence information (GenBank accession number D26309.1, incorporated herein as SEQ ID NO:4). For human LIM domain kinase 1 the PCR primers were: forward primer: […] (SEQ ID NO: 5) reverse primer: […] (SEQ ID NO: 6) and the PCR probe was: FAM-[…]-TAMRA (SEQ ID NO: 7) where FAM is the fluorescent dye and TAMRA is the quencher dye.
All cytidine residues are 5-methylcytidines. […] Data are averages from two experiments in which A549 cells were treated with the oligonucleotides of the present invention. […] If present, “N.D.” indicates “no data”.
For “206184 (antisense eA*eT*eT*eT*e[5mC]*d[5mC]*dA*dA*dG*dA*dT*d[5mC]*d[5mC]*dG*dG*eT*e[5mC]*eT*e[5mC]*e[5mC]) [compound 206184]”, the “% INHIB (inhibition of human LIM domain kinase 1 mRNA levels)” value (from here on “% INHIB”) worked out at 74%. Same read-out and setting: the result for “206221 (antisense eT*e[5mC]*e[5mC]*e[5mC]*eA*d[5mC]*d[5mC]*dT*d[5mC]*d[5mC]*d[5mC]*dT*dA*dA*dG*eT*e[5mC]*eA*eT*eG) [compound 206221]” reads 17%. Still for that read-out and setting: the result for “206182 (antisense eG*eG*eA*eA*eT*dT*d[5mC]*dT*dT*d[5mC]*dA*d[5mC]*dA*dT*d[5mC]*eT*eG*eG*eG*e[5mC]) [compound 206182]” reads 86%; that for “206174 (antisense eG*eG*e[5mC]*e[5mC]*e[5mC]*dA*dG*dT*dA*dG*dT*d[5mC]*d[5mC]*dT*dT*e[5mC]*eT*eT*eG*e[5mC]) [compound 206174]”, 87%. With “206187 (antisense eT*e[5mC]*eA*eG*e[5mC]*dT*dG*dG*dA*dG*d[5mC]*dA*dG*dG*d[5mC]*eG*eG*e[5mC]*eT*eG) [compound 206187]”, the “% INHIB” value is 60%. Regarding “206233 (antisense eG*eG*eT*e[5mC]*e[5mC]*dT*dT*dG*d[5mC]*dG*d[5mC]*dT*dG*dG*dG*eA*eG*eG*e[5mC]*e[5mC]) [compound 206233]”, the “% INHIB” value is listed as 80%. Same read-out and setting: as for “206161 (eA*eA*e[5mC]*e[5mC]*eT*d[5mC]*dA*dT*dG*d[5mC]*dA*d[5mC]*dT*d[5mC]*dG*eA*e[5mC]*eG*eG*eG; antisense) [compound 206161]”, the figure is 82%; as for “206166 (eT*eT*e[5mC]*eT*eT*d[5mC]*d[5mC]*d[5mC]*dT*d[5mC]*d[5mC]*dA*dG*dG*dT*eG*e[5mC]*eA*eA*e[5mC]; antisense) [compound 206166]”, 70%; as for “206191 (antisense e[5mC]*eT*e[5mC]*eA*eA*dG*dA*d[5mC]*dA*dG*dG*dT*dT*dT*d[5mC]*eT*eG*e[5mC]*e[5mC]*eG) [compound 206191]”, 62%. Still for that read-out and setting: the result for “206183 (antisense eT*eG*eG*eA*eT*dG*dG*dA*dA*dT*dT*d[5mC]*dT*dT*d[5mC]*eA*e[5mC]*eA*eT*e[5mC]) [compound 206183]” reads 79%. Same read-out and setting: as for “206164 (e[5mC]*eA*eG*eG*eT*dG*d[5mC]*dA*dA*d[5mC]*dA*dA*dA*dG*dT*eA*eG*e[5mC]*eG*eT; antisense) [compound 206164]”, the figure is 75%; as for “206163 (eG*eT*e[5mC]*eA*eA*d[5mC]*d[5mC]*dT*d[5mC]*dA*dT*dG*d[5mC]*dA*d[5mC]*eT*e[5mC]*eG*eA*e[5mC]; antisense) [compound 206163]”, 79%.

“206165 (e[5mC]*e[5mC]*e[5mC]*eT*e[5mC]*d[5mC]*dA*dG*dG*dT*dG*d[5mC]*dA*dA*d[5mC]*eA*eA*eA*eG*eT) [compound 206165]”: the “% INHIB” value turned out to be 22%.

Take “206204 (antisense e[5mC]*eA*eT*eT*e[5mC]*dT*dT*dG*dT*dT*d[5mC]*dT*d[5mC]*dG*d[5mC]*eG*eG*eA*e[5mC]*e[5mC]) [compound 206204]”: the “% INHIB” value is 81%. Same read-out and setting: as for “206224 (antisense eG*e[5mC]*eT*eG*e[5mC]*dT*dG*d[5mC]*dA*dG*d[5mC]*d[5mC]*dG*dT*dA*eT*eG*eA*eA*eA) [compound 206224]”, the figure is 66%; as for “206180 (antisense eA*e[5mC]*eA*eT*e[5mC]*dT*dG*dG*dG*d[5mC]*dT*d[5mC]*dA*dT*dG*e[5mC]*eA*eG*e[5mC]*e[5mC]) [compound 206180]”, 77%.

Staying with this series, now noted: real-time PCR, bound stated.
As to “ctggctgtccatgctcttga (e[5mC]*eT*eG*eG*e[5mC]*dT*dG*dT*d[5mC]*d[5mC]*dA*dT*dG*d[5mC]*dT*e[5mC]*eT*eT*eG*eA; antisense) [ISIS 206200]”, the “inhibition of human LIM domain kinase 1 expression (text summary of Table 1)” value (from here on “inhibition … (text summary of Table 1)”) is “at least 65%”. The same measure, in the same setting: the result for “tagcgggcccagtagtcctt (eT*eA*eG*e[5mC]*eG*dG*dG*d[5mC]*d[5mC]*d[5mC]*dA*dG*dT*dA*dG*eT*e[5mC]*e[5mC]*eT*eT; antisense) [ISIS 206175]” reads “at least 65%”; that for “gtggccctggctcagtcggg (eG*eT*eG*eG*e[5mC]*d[5mC]*d[5mC]*dT*dG*dG*d[5mC]*dT*d[5mC]*dA*dG*eT*e[5mC]*eG*eG*eG; antisense) [ISIS 206207]”, “at least 65%”. On the same count and under the same terms, as for “agggcctggaggtactggcc (eA*eG*eG*eG*e[5mC]*d[5mC]*dT*dG*dG*dA*dG*dG*dT*dA*d[5mC]*eT*eG*eG*e[5mC]*e[5mC]; antisense) [ISIS 206171]”, the entry is “at least 65%”; as for “aagcttcacagttttaatac (eA*eA*eG*e[5mC]*eT*dT*d[5mC]*dA*d[5mC]*dA*dG*dT*dT*dT*dT*eA*eA*eT*eA*e[5mC]; antisense) [ISIS 206217]”, “at least 65%”. Consider “gtttctgccgggcagagctg (eG*eT*eT*eT*e[5mC]*dT*dG*d[5mC]*d[5mC]*dG*dG*dG*d[5mC]*dA*dG*eA*eG*e[5mC]*eT*eG; antisense) [ISIS 206189]”, for which the “inhibition … (text summary of Table 1)” value is “at least 65%”. Same read-out and setting: the result for “aggtaggccatccctgatgc (eA*eG*eG*eT*eA*dG*dG*d[5mC]*d[5mC]*dA*dT*d[5mC]*d[5mC]*d[5mC]*dT*eG*eA*eT*eG*e[5mC]; antisense) [ISIS 206201]” reads “at least 65%”.

On to “cctccagggagctatggacc (e[5mC]*e[5mC]*eT*e[5mC]*e[5mC]*dA*dG*dG*dG*dA*dG*d[5mC]*dT*dA*dT*eG*eG*eA*e[5mC]*e[5mC]; antisense) [ISIS 206210]”, for which the “inhibition … (text summary of Table 1)” value was “at least 65%”. On the same count and under the same terms, the result for “tcacggtgtgtcaccttgat (eT*e[5mC]*eA*e[5mC]*eG*dG*dT*dG*dT*dG*dT*d[5mC]*dA*d[5mC]*d[5mC]*eT*eT*eG*eA*eT; antisense) [ISIS 206195]” reads “at least 65%”; that for “agcttggagtgctccaccag (eA*eG*e[5mC]*eT*eT*dG*dG*dA*dG*dT*dG*d[5mC]*dT*d[5mC]*d[5mC]*eA*e[5mC]*e[5mC]*eA*eG; antisense) [ISIS 206177]”, “at least 65%”; that for “cattcttgttctcgcggacc (e[5mC]*eA*eT*eT*e[5mC]*dT*dT*dG*dT*dT*d[5mC]*dT*d[5mC]*dG*d[5mC]*eG*eG*eA*e[5mC]*e[5mC]; antisense) [ISIS 206204]”, “at least 65%”. Still for that read-out and setting: as for “gtcacaacacctgcaggaga (eG*eT*e[5mC]*eA*e[5mC]*dA*dA*d[5mC]*dA*d[5mC]*d[5mC]*dT*dG*d[5mC]*dA*eG*eG*eA*eG*eA; antisense) [ISIS 206229]”, the entry is “at least 65%”.

Source of the values: patent publication US20040014047A1, “Antisense modulation of LIM domain kinase 1 expression” (Isis Pharmaceuticals Inc., priority 2002, published 2004).
